# Reference: US20260021131A1, “USE OF MI[…] IN COMBINATION WITH CA[…] TREATING NASOPHARYNGEAL CARCINOMA” (CSPC ZHONGQI PHARMACEUTICAL TECHNOLOGY (SHIJIAZHUANG) CO., …, priority 2022, published 2026)
# How the values were obtained:
# [1] = test system: subjects with recurrent and/or metastatic nasopharyngeal carcinoma who have failed platinum-based therapy; assay: Phase III clinical study of mitoxantrone hydrochloride liposome injection combined with capecitabine versus capecitabine monotherapy: efficacy evaluation (best overall response, RECIST 1.1); assay type: in vivo, human; set-up: key to Best overall response: complete response (CR); partial response (PR); stable disease (SD); disease progression (PD)
# Description: (§1) Example 1. A Randomized, Open-Label, Positive-Controlled, Multi-center Phase III Clinical Study of Mitoxantrone Hydrochloride Liposome Injection Combined with Capecitabine Versus Capecitabine Monotherapy in Subjects with Recurrent and/or Metastatic Nasopharyngeal Carcinoma Who Have Failed Platinum-Based Therapy.
# This study is a randomized, open-label, positive-controlled, multicenter phase III clinical study whose objective is to evaluate the efficacy and safety of mitoxantrone hydrochloride liposome injection combined with capecitabine versus capecitabine monotherapy in subjects with recurrent and/or metastatic nasopharyngeal carcinoma.
# (§2) Subjects with recurrent and/or metastatic nasopharyngeal carcinoma who have failed first-line or second-line platinum-based therapy will be enrolled. After screening, eligible subjects are stratified-randomized (stratification factors: (1) ECOG score: 0 vs. 1; (2) whether a liver metastasis is present: any metastasis is present vs. all metastases are not present; (3) gender: male vs. female) in a 1:1 ratio into an experimental group and a control group.
# (§3) The experimental group receives treatment with mitoxantrone hydrochloride liposome injection (20 mg/m^2) combined with capecitabine (1000 mg/m^2, twice daily), with every 3 weeks as a treatment cycle. The mitoxantrone hydrochloride liposome is administered on day 1 of each cycle, and capecitabine is administered on days 1 to 14. After 8 cycles of treatment with the mitoxantrone hydrochloride liposome, the investigator will assess the patient's risk-benefit ratio to determine whether to continue treatment until disease progression or intolerance, and capecitabine monotherapy as maintenance treatment. The control group receives capecitabine monotherapy, with every 3 weeks as a treatment cycle. Capecitabine monotherapy is administered on days 1 to 14 of each cycle. Sparse blood collection is conducted for all subjects in the experimental group.
# During the study, the Independent Data Monitoring Committee (IDMC) will conduct safety assessments after two cycles of treatment for the first 40 subjects enrolled (about 20 per group) and throughout the study. Enrollment will continue during the safety assessment period. All subjects will be treated until disease progression according to the RECIST1.1 criteria, intolerable toxicity, withdrawal of informed consent, initiation of new anti-tumor therapy, loss to follow-up, death, or end of study, whichever occurs first. If the subject has no more treatment options after the investigator first determines that the subject has experienced disease progression, and the investigator determines that the subject can continue to benefit from the trial treatment, the subject may continue to receive the trial treatment in this trial until disease progression as assessed by the IRC or the investigator determines that the subject no longer benefits. […]
# [2] = test system: subjects with recurrent and/or metastatic nasopharyngeal carcinoma who have failed platinum-based therapy; assay type: in vivo, human
# Description: as §1, §2, §3
# During the study, the Independent Data Monitoring Committee (IDMC) will conduct safety assessments after two cycles of treatment for the first 40 subjects enrolled (about 20 per group) and throughout the study. Enrollment will continue during the safety assessment period. All subjects will be treated until disease progression according to the RECIST1.1 criteria, intolerable toxicity, withdrawal of informed consent, initiation of new anti-tumor therapy, loss to follow-up, death, or end of study, whichever occurs first. If the subject has no more treatment options after the investigator first determines that the subject has experienced disease progression, and the investigator determines that the subject can continue to benefit from the trial treatment, the subject may continue to receive the trial treatment in this trial until disease progression as assessed by the IRC or the investigator determines that the subject no longer benefits.
# • Objective response rate (ORR), disease control rate (DCR), and duration of response (DOR) as assessed by the investigator and the IRC • Progression-free survival (PFS) as assessed by the investigator • Frequency and severity of AEs (NCI CTCAE 5.0); changes in vital signs, physical examinations, electrocardiograms, and laboratory findings • Total mitoxantrone and free mitoxantrone plasma concentrations. • Note: The abbreviations described above have the following meanings: • PFS: progression-free survival, defined as the time between the initial treatment of study drug and the date of disease progression (PD) or death, whichever occurs first. • OS: overall survival, defined as the time from the initial treatment of the study drug to death from any cause. • ORR: objective response rate, defined as the proportion of subjects achieving complete response (CR) and partial response (PR). • DCR: disease control rate, defined as the proportion of subjects achieving complete response (CR), partial response (PR), and stable disease (SD). • DOR: duration of response, defined as the time from the first assessment of CR or PR to the first assessment of PD or death from any cause.
# [3] = subjects evaluated for BOR (9 experimental group, 5 control group), by Jul. 31, 2023
smiles,measurement,setting,value
"CCCCCOC(=O)Nc1nc(=O)n([C@@H]2O[C@H](C)[C@@H](O)[C@H]2O)cc1F [control group, capecitabine]",Best overall response,"[1]; subject S01005, ECOG 0, 1 line received, metastasis liver and lung",SD
same,Best overall response,"[1]; subject S13001, ECOG 1, 1 line received, metastasis liver, spleen, and bone",PD
same,Best overall response,"[1]; subject S14001, ECOG 1, 2 lines received, metastasis liver and bone",PD
same,Best overall response,"[1]; subject S24001, ECOG 1, 2 lines received, metastasis bone",PR
same,Best overall response,"[1]; subject S32001, ECOG 1, 1 line received, metastasis liver",PD
same,Best overall response (BOR): number of evaluated subjects with PD,[1]; [3],three
same,Best overall response (BOR): number of evaluated subjects with PR,[1]; [3],one
same,Best overall response (BOR): number of evaluated subjects with SD,[1]; [3],one
same,Best overall response (BOR): percentage of evaluated subjects with PD,[1]; [3],60%
same,Best overall response (BOR): percentage of evaluated subjects with PR,[1]; [3],20%
same,Best overall response (BOR): percentage of evaluated subjects with SD,[1]; [3],20%
same,SAE: Acute epiglottitis,"[2]; both, human, in vivo",0 n (%)
same,SAE: Anemia,"[2]; both, human, in vivo",0 n (%)
same,SAE: Bacterial pneumonia,"[2]; both, human, in vivo",1 (3.3%) n (%)
same,SAE: Cancer pain,"[2]; both, human, in vivo",0 n (%)
same,SAE: Dysphagia,"[2]; both, human, in vivo",1 (3.3%) n (%)
same,SAE: General fatigue,"[2]; both, human, in vivo",0 n (%)
same,SAE: Hypokalemia,"[2]; both, human, in vivo",0 n (%)
same,SAE: Hyponatremia,"[2]; both, human, in vivo",0 n (%)
same,SAE: Neutrophil count decreased,"[2]; both, human, in vivo",0 n (%)
same,SAE: Oralmucositis,"[2]; both, human, in vivo",1 (3.3%) n (%)
same,SAE: Platelet count decreased,"[2]; both, human, in vivo",0 n (%)
same,SAE: Post-cardiac arrest resuscitation syndrome,"[2]; both, human, in vivo",1 (3.3%) n (%)
same,SAE: Posterior-circulation ischemia,"[2]; both, human, in vivo",1 (3.3%) n (%)
same,SAE: Pulmonary infection,"[2]; both, human, in vivo",0 n (%)
same,SAE: Severe pneumonia,"[2]; both, human, in vivo",1 (3.3%) n (%)
same,SAE: Sinusitis,"[2]; both, human, in vivo",0 n (%)
same,SAE: Upper airway obstruction,"[2]; both, human, in vivo",0 n (%)
same,SAE: White blood cell count decreased,"[2]; both, human, in vivo",0 n (%)
same,"Subjects who experienced serious adverse events (SAEs), total","[2]; both, human, in vivo",3 subjects
same,SAE: Death from unknown cause,"[2]; experimental group N = 32, control group N = 30",1 (3.3%) n (%)
same,Subjects who died (end of the study),"[2]; up to Jul. 31, 2023, 32 subjects experimental group, 30 subjects control group",two
